Test system: HepG2 cells
Test: LDH-based cytotoxicity assay
Type: cell-based, human
Details: 24 h, up to a concentration of 100 μM
Experimental: Figure 2 Development and characterization of the human ATGL inhibitor NG-497. (a) Structure and IC50 values of human ATGL inhibitors. (b) Dose-dependent inhibition of human ATGL by respective inhibitors. (c) ATGL activity was determined at the indicated substrate concentrations in the absence and presence of NG-497 (0.5 μM). Ki was determined by nonlinear regression analysis using GraphPad Prism. Lineweaver–Burk analysis of ATGL inhibition is shown in the inset. (d) Toxicity of NG-497 in HepG2 cells was determined after 24 h incubation at indicated concentrations. Cisplatin and DMSO were used as positive and negative controls, respectively. Cytotoxicity was determined using the Roche LDH Kit and calculated as relative LDH release compared to fully lysed cells. (e) Stability of NG-497 was analyzed via ultrahigh-performance liquid chromatography–mass spectrometry (UHPLC-MS) after incubation in human serum for 0 or 3 h at 37 °C. Atglistatin and a chemically related unstable compound were used as controls. […] NG-497 concentrations/well were determined at the indicated time points using UHPLC-MS. […] Statistical significance was determined via t test (*p < 0.05; **p < 0.01; ***p < 0.001) or ANOVA followed by Bonferroni post hoc test (^###p < 0.001). […] The detected 297 lipid species of both groups were analyzed with supervised multivariate analysis OPLS-DA and are shown as a loading plot. […]

CCOc1ccc(-c2cc(OC)cc(C(=O)OC(C)C)n2)cc1 [NG-497]
cytotoxicity (relative LDH release): no toxic effects

From PMC9011347, “Small-Molecule Inhibitors Targeting Lipolysis in Human Adipocytes” (Journal of the American Chemical Society, 2022)
